According to patent publication US8252945B2, “Protective agent for retinal neuronal cell comprising indazole derivative as active ingredient” (UBE Industries, Ltd., priority 2005, dated 2012):

melting point | SMILES
255 to 261 °C (dec.) | CC(C)(N)c1ccc(-c2ccc3[nH]ncc3c2[N+](=O)[O-])cc1.Cl
219 to 224 °C (dec.) | CN(C)c1c(-c2ccc(C(C)(C)N)cc2)ccc2[nH]ncc12.Cl.Cl.Cl
270 to 272 °C | CC(C)(N)c1ccc(-c2ccc3[nH]ncc3c2C#N)cc1.Cl
258 to 261 °C (dec.) | COc1c(-c2ccc(C(C)(C)N)cc2)ccc2[nH]ncc12.Cl.Cl
256 to 258 °C (dec.) | CC(C)(N)c1ccc(-c2ccc3[nH]ncc3c2-c2ccno2)cc1.Cl.Cl

Further lines, the compound ahead of its results:

SMILES | melting point
CC(C)(N)c1ccc(-c2ccc3[nH]ncc3c2C2CC2)nc1.Cl.Cl.Cl | 209 to 213 °C (dec.)
CC(C)(N)c1ccc(-c2ccc3[nH]ncc3c2OC(F)F)nc1.Cl.Cl.Cl | 170 to 173 °C
CN(C)/C=C/C(=O)c1c(-c2ccc(C(C)(C)NC(=O)OC(C)(C)C)cc2)ccc2nn(C3CCCCO3)cc12 (centres unmarked) [Compound 14, 5-[4-(1-tert-butoxycarbonylamino-1-methylethyl)phenyl]-4-(3-dimethylaminoacryloyl)-2-(tetrahydropyran-2-yl)-2H-indazole] | 191 to 194 °C
